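Compound exposure: 48 hours, 5 concentrations, 96-well plates. GI50: concentration for 50% inhibition of growth.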 Active and inactive are the calls of the source. Rule as the data show it: active = GI50 up to about 1.1 µM and inactive = higher.
Key:
Experiment in all cases: NCI tumour cell line growth inhibition, 48 h
[1] = system: SW-620
[2] = system: M14
[3] = system: SK-MEL-2
[4] = system: MDA-MB-231
[5] = system: RXF 393
[6] = system: OVCAR-3
[7] = system: OVCAR-4
[8] = system: NCI/ADR-RES
[9] = system: BT-549
[10] = system: SNB-19
[11] = system: HCT-116
[12] = system: SF-295
[13] = system: MDA-N
[14] = system: T47D
[15] = system: K562
[16] = system: CCRF-CEM
[17] = system: KM12
[18] = system: SF-268
[19] = system: PC-3

Row | SMILES | GI50 [1] | GI50 [2] | GI50 [3] | GI50 [4] | GI50 [5] | GI50 [6] | GI50 [7] | GI50 [8] | GI50 [9] | GI50 [10] | GI50 [11] | GI50 [12] | GI50 [13] | GI50 [14] | GI50 [15] | GI50 [16] | GI50 [17] | GI50 [18] | GI50 [19]
1 | COc1ccc2nc3ccc(OC)cc3c(SCCCl)c2c1 | 12.6 µM (inactive) | 12.3 µM (inactive) | 20.7 µM (inactive) | 18.8 µM (inactive) | > 20.6 µM (inactive) | 18.2 µM (inactive) | 12.7 µM (inactive) | 16.3 µM (inactive) | 51.4 µM (inactive) | 32.4 µM (inactive) | 6.22 µM (inactive) | 26.2 µM (inactive) | > 50.6 µM (inactive) | 15.2 µM (inactive) | 9.66 µM (inactive) | 2.75 µM (inactive) | 17.5 µM (inactive) | 12 µM (inactive) | 22.6 µM (inactive)
2 | Nc1nc(N)c2c(n1)NC(c1ccccc1)CC(/C=C/c1ccc(Cl)cc1)=N2 (stereo not given) | 10.4 µM (inactive) | 11.6 µM (inactive) | 14.6 µM (inactive) | 3.23 µM (inactive) | 3.62 µM (inactive) | 5.62 µM (inactive) | 6.41 µM (inactive) | 3.15 µM (inactive) | 17.5 µM (inactive) | 12.8 µM (inactive) | 1.99 µM (inactive) | 14.1 µM (inactive) | 5.55 µM (inactive) | 5.83 µM (inactive) | 2.65 µM (inactive) | 4.84 µM (inactive) | 3.52 µM (inactive) | 15.3 µM (inactive) | 6.59 µM (inactive)
3 | O=[N+]([O-])c1ccc(Cl)c(/C=N/C23CC4CC(CC(C4)C2)C3)c1 | > 10 µM (inactive) | > 6.22 µM (inactive) | > 10 µM (inactive) | > 10 µM (inactive) | > 10 µM (inactive) | > 9.48 µM (inactive) | > 10 µM (inactive) | > 9.1 µM (inactive) | > 10 µM (inactive) | > 10 µM (inactive) | 1.2 µM (inactive) | > 10 µM (inactive) | > 8.13 µM (inactive) | > 10 µM (inactive) | 2.89 µM (inactive) | 3.8 µM (inactive) | > 9.48 µM (inactive) | > 10 µM (inactive) | > 10 µM (inactive)
4 | COc1cc2cc(C(=O)N3CC(CCl)c4c3cc(NC(=O)C(C)(C)c3ccccc3[N+](=O)[O-])c3ccccc43)[nH]c2c(OC)c1OC (stereo not given) | 1.09 µM (active) | 1.75 µM (inactive) | 6.93 µM (inactive) | 3.03 µM (inactive) | 1.42 µM (inactive) | 82 µM (inactive) | 3.08 µM (inactive) | 1.12 µM (active) | 8.87 µM (inactive) | 4.36 µM (inactive) | 0.393 µM (active) | 1.67 µM (inactive) | 5.12 µM (inactive) | 4.73 µM (inactive) | 0.991 µM (active) | 0.13 µM (active) | 1.86 µM (inactive) | 1.88 µM (inactive) | 1.16 µM (inactive)
5 | Cc1cnc2nc(-c3ccc(F)cc3)cc(O)c2c1 | 19 µM (inactive) | 34.6 µM (inactive) | 25.4 µM (inactive) | > 73.1 µM (inactive) | 31.3 µM (inactive) | 27.5 µM (inactive) | 48.6 µM (inactive) | 27.2 µM (inactive) | > 100 µM (inactive) | 35.4 µM (inactive) | 18.7 µM (inactive) | 25.9 µM (inactive) | 2.72 µM (inactive) | 39.2 µM (inactive) | 4.52 µM (inactive) | 25.6 µM (inactive) | 5.66 µM (inactive) | 67.9 µM (inactive) | 28.6 µM (inactive)
6 | Nc1nc(N)c2nc(CNc3ccc(C(=O)O)cc3)[nH]c2n1 | > 100 µM (inactive) | > 100 µM (inactive) | > 100 µM (inactive) | > 100 µM (inactive) | > 100 µM (inactive) | > 100 µM (inactive) | > 100 µM (inactive) | > 100 µM (inactive) | > 100 µM (inactive) | > 100 µM (inactive) | > 100 µM (inactive) | > 100 µM (inactive) | > 100 µM (inactive) | > 100 µM (inactive) | > 100 µM (inactive) | > 100 µM (inactive) | > 100 µM (inactive) | > 100 µM (inactive) | > 100 µM (inactive)
7 | CC(=O)CC1(CBr)Nc2ccc([N+](=O)[O-])cc2NC1=O (stereo not given) | 28.7 µM (inactive) | > 100 µM (inactive) | > 100 µM (inactive) | > 100 µM (inactive) | 32.7 µM (inactive) | 28.1 µM (inactive) | 81.8 µM (inactive) | > 100 µM (inactive) | 58.1 µM (inactive) | > 100 µM (inactive) | 31.8 µM (inactive) | > 100 µM (inactive) | > 100 µM (inactive) | 42.9 µM (inactive) | 83.8 µM (inactive) | 45.2 µM (inactive) | 56.2 µM (inactive) | > 100 µM (inactive) | 60.4 µM (inactive)
8 | COC(=O)c1ccccc1C1CN=NC12Cc1c(C)cc(C)cc1C2=O (stereo not given) | > 100 µM (inactive) | > 100 µM (inactive) | > 100 µM (inactive) | 45.4 µM (inactive) | > 100 µM (inactive) | > 100 µM (inactive) | > 100 µM (inactive) | > 100 µM (inactive) | > 100 µM (inactive) | > 100 µM (inactive) | > 100 µM (inactive) | > 100 µM (inactive) | > 100 µM (inactive) | > 100 µM (inactive) | > 100 µM (inactive) | > 100 µM (inactive) | > 100 µM (inactive) | > 100 µM (inactive) | > 100 µM (inactive)
9 | COc1cc(C(=O)OC2CC34CCNC35CC(OC5(OC)C2O)c2cc3c(cc24)OCO3)ccc1O (stereo not given) | > 100 µM (inactive) | > 100 µM (inactive) | > 100 µM (inactive) | > 100 µM (inactive) | > 100 µM (inactive) | > 100 µM (inactive) | > 100 µM (inactive) | > 100 µM (inactive) | > 100 µM (inactive) | > 100 µM (inactive) | > 100 µM (inactive) | > 100 µM (inactive) | > 100 µM (inactive) | > 100 µM (inactive) | > 100 µM (inactive) | > 100 µM (inactive) | > 100 µM (inactive) | > 100 µM (inactive) | > 100 µM (inactive)
10 | CCOC(=O)/C=C\C(C#N)(C#N)/N=C/c1ccsc1 | 1.62 µM (inactive) | 3.08 µM (inactive) | 17.7 µM (inactive) | 16.3 µM (inactive) | 2.26 µM (inactive) | 2.54 µM (inactive) | 6.43 µM (inactive) | 3.84 µM (inactive) | 5.42 µM (inactive) | 23.1 µM (inactive) | 2.17 µM (inactive) | 29.3 µM (inactive) | 8.91 µM (inactive) | 2 µM (inactive) | 3.13 µM (inactive) | 0.207 µM (active) | 19.5 µM (inactive) | 6.75 µM (inactive) | 8.99 µM (inactive)
11 | CCOC(=O)C1C[C@H]2CO[C@H](c3ccccc3)N2C1=O (stereo not given in full) | > 100 µM (inactive) | > 100 µM (inactive) | > 100 µM (inactive) | > 100 µM (inactive) | > 100 µM (inactive) | > 100 µM (inactive) | > 100 µM (inactive) | > 100 µM (inactive) | > 100 µM (inactive) | > 100 µM (inactive) | > 100 µM (inactive) | > 100 µM (inactive) | > 100 µM (inactive) | > 100 µM (inactive) | > 100 µM (inactive) | > 100 µM (inactive) | > 100 µM (inactive) | > 100 µM (inactive) | > 100 µM (inactive)
12 | Cc1c(C)c2c(c(N)c1C#N)C(=O)N(Cc1ccc(S(N)(=O)=O)cc1)C2=O | > 100 µM (inactive) | 25.9 µM (inactive) | > 50.1 µM (inactive) | 19.7 µM (inactive) | 7.46 µM (inactive) | > 41.5 µM (inactive) | > 100 µM (inactive) | > 57.9 µM (inactive) | 19.4 µM (inactive) | 5.51 µM (inactive) | 32.9 µM (inactive) | 21.5 µM (inactive) | > 100 µM (inactive) | > 39.2 µM (inactive) | > 100 µM (inactive) | > 100 µM (inactive) | > 100 µM (inactive) | 16.5 µM (inactive) | > 64 µM (inactive)
13 | O=C1c2[nH]c3ccccc3c2CCN2CCCCC12 (stereo not given) | 26.1 µM (inactive) | 17.9 µM (inactive) | 18.5 µM (inactive) | 19.2 µM (inactive) | 24.9 µM (inactive) | 19.7 µM (inactive) | 27.5 µM (inactive) | 22.8 µM (inactive) | 27.6 µM (inactive) | 24.9 µM (inactive) | 23.6 µM (inactive) | 25.1 µM (inactive) | 19.1 µM (inactive) | 25.7 µM (inactive) | 23.2 µM (inactive) | 22.6 µM (inactive) | 17.7 µM (inactive) | 33.8 µM (inactive) | 18.8 µM (inactive)
14 | O=C(NNCc1ccco1)c1cc2ccccc2[nH]1 | > 100 µM (inactive) | > 94 µM (inactive) | > 100 µM (inactive) | > 100 µM (inactive) | > 100 µM (inactive) | > 55.6 µM (inactive) | > 39.1 µM (inactive) | > 52.4 µM (inactive) | > 52.2 µM (inactive) | > 80.2 µM (inactive) | > 86.1 µM (inactive) | 91.8 µM (inactive) | > 100 µM (inactive) | 13.5 µM (inactive) | > 100 µM (inactive) | > 100 µM (inactive) | 65.8 µM (inactive) | 38.8 µM (inactive) | > 91 µM (inactive)
15 | COC1=CC(=O)c2c(c(-c3nc(C)cs3)cn2C)C1=O | 3.24 µM (inactive) | 2.13 µM (inactive) | 3.03 µM (inactive) | 15.7 µM (inactive) | 20.4 µM (inactive) | 1.75 µM (inactive) | 18.5 µM (inactive) | 4 µM (inactive) | 3.97 µM (inactive) | 4.23 µM (inactive) | 2.99 µM (inactive) | 2.88 µM (inactive) | 0.931 µM (active) | 20.1 µM (inactive) | 2.62 µM (inactive) | 4.5 µM (inactive) | 3.95 µM (inactive) | 6.44 µM (inactive) | 5.96 µM (inactive)

From ChEMBL document CHEMBL1201862, “PubChem BioAssay data set” (2004)
